Laboratory results taken from patent publication US20040126385A1, “Methods and compositions for screening, diagnosing, or treating NF-kappaB related disease” (priority 2001, published 2004).

Experiments:
[1] = system: CSMLO-induced tumors; experiment: Tumor growth in mouse tumor model (CSMLO cells implanted in female A-J mice); type: in vivo
Procedure: FIG. 1. Inhibition of growth of tumors by Go6976. Tumors were generated in female A-J mice by implantation of CSMLO cells (10^6) on day 0 (indicated by the arrow). Go6976 (0.5 ml of 0.05 mM solution in 0.1% DMSO) was administered 48 h later to a group of five animals, twice a week locally at the site of implantation of cells (♦). Control group (five animals) received 0.5 ml of 0.1% DMSO similarly (□). Growth of tumors was monitored by measurements of tumor volume at regular intervals (32).
(§1) FIG. 2. Regression of tumors by Go6976. (A) CSMLO cells were implanted on day 0 (indicated by the arrow) as for FIG. 1. Go6976 was administered on day 21 (indicated by the arrow), locally under the tumors of the five animals with comparatively larger tumors (▪). Another five animals received the same volume of 0.1% DMSO (♦) on the same day, and the control group of five animals received nothing (□). (B) One representative of five animals from each group. Animals 1 and 2 are DMSO- and Go6976-treated non-tumor-bearing animals, respectively. Animal 3 is tumor-bearing and without treatment. Animals 4 and 5 represent tumor-bearing groups treated with DMSO and Go6976, respectively. Animal 6 is an A-J mouse that received nothing.
Animal model. […] Palpable tumors were consistently detected within 10-15 days following implantation of the cells. Body weight and tumor volumes (32) were monitored weekly. […]

[2] = system: NF-κB; experiment: Level of active NF-κB in nuclear extracts by EMSA; type: cell-based, mouse; conditions: CSMLO cells
Procedure: FIG. 3. Active NF-κB complex in CSMLO cells: Stimulation by PMA and inhibition by Go6976. (A) Nuclear extracts (5 μg protein) from control and PMA-treated (20 ng/ml for 18 h) CSMLO cells were incubated in a standard EMSA reaction mixture containing [γ-^32P]-labeled double-stranded oligonucleotide plus Go6976 at the indicated μM concentrations for […] and subjected to nondenaturing PAGE (7, 31). The autoradiographic signals of the retarded NF-κB-[^32 P]DNA complex is indicated by the upper arrow and the free [γ-^32P]-labeled probe by the lower arrow. (B) The NF-κB-[^32P]DNA complex was characterized by supershift assay with anti-p50 (lanes 3 and 4) or p65 (B, lanes 5 and 6) antibodies. Nuclear extracts were incubated with specific antibodies for 15 min at room temperature, followed by incubation for an additional 30 min in the presence of [γ-^32p] double-stranded NF-κB oligonucleotide, and subjected to EMSA as described (7, 31). The supershifted complexes are indicated by the upper arrow.
Methods. Measurements of the level of active NF-κB by EMSA. The level of active NF-κB in the nuclear extracts of control and treated cells was determined by its DNA binding activity by EMSA as described 7, 30, 31). The [^32P]DNA-protein complex was identified as a retarded radioactive band in EMSA detected by autoradiography. […]

[3] = system: CSMLO cells; experiment: Growth of CSMLO cells under culture conditions; type: cell-based, mouse; conditions: short-term drug treatment with 10 μM Go6976
Procedure: Materials. Mouse mammary adenocarcinoma cells in culture (CSMLO) were grown in complete medium supplemented with 10% FBS and growth factors as described (7, 11, 12). Anti-human ER antibody (SC543), anti-mouse ccD1 antibody, anti-p50, and anti-p65 antibodies for the NF-κB subunits were obtained from Santa Cruz Biotechnology. Rabbit polyclonal IgG raised against the conserved region of actin and anti-Flag (M2) monoclonal antibody were obtained from Sigma-Aldrich. The fluorescein-conjugated goat anti-mouse IgG was from Oncogene Science. Complementary strands of the oligonucleotide (5′-[…]-3′) containing the NF-κB motif (bold faced) were custom synthesized by Integrated DNA Technologies (Coralville, Iowa). The double-stranded NF-κB-oligonucleotide was end-labeled with [γ-^32P]ATP (NEN) and T4 kinase (New England Biolabs) as described (7), and was used for electrophoretic mobility shift assay (EMSA). Hydrocortisone, insulin, DTT, dimethyl sulfoxide (DMSO), and phenylmethylsulfonyl fluoride were obtained from Sigma. Hybond nitrocellulose membrane and ECL (enhanced chemiluminescence) immunodetection kits were obtained from Amersham Pharmacia. Go6976, a nonglyosidic indolcarbazole, and an inhibitor of protein kinase C alpha and beta was purchased from Calbiochem-Novabiochem (28, 29).

[4] = system: tumor, liver, and lung tissues; experiment: Histology (H&E) of tumor, liver and lung tissues of tumor-bearing animals; type: in vivo, mouse
Text: FIG. 4. Histology of tissues from untreated and Go6976-treated tumor-bearing animals. Tumor growth and treatment conditions are the same as described for FIG. 1. Tumor, liver, and lung tissues from untreated and treated tumor bearing animals were dissected 11 days after the initiation of treatment and 32 days after implantation of the cells. Tissues were processed for hematoxylin/eosin (H&E) staining, examined under a light microscope, and photographed at the indicated magnifications. Arrows show mitotic cells in untreated tumor tissue. Residual tumor (T) and necrotic cells (N) of the treated tumor are shown. Stars in the treated block indicate pycnotic cells with apparent fragmentation and clumping of nuclear DNA.
(§2) Animal model. The tumorigenic potential of CSMLO and dnIkkβ-expressing stable transfectants was examined in female A-J mice 2-3 weeks old. For each mouse, 1.0 s×10^6 cells were implanted under the dorsal skin. Palpable tumors were consistently detected within 10-15 days following implantation of the cells. Body weight and tumor volumes (32) were monitored weekly. Go6976 (0.5 ml of 0.05 mM stock solution in 0.1% DMSO) was administered to each animal locally two times a week. The control group received the same volume of the solvent (0.5 ml of 0.1%).

[5] = system: ccD1; experiment: Level of ccD1 by Western blot analysis; type: cell-based, mouse; conditions: CSMLO cells transfected with dnIkkβ
Text: FIG. 5. Inhibition of NF-κB activation and down stream events by stable expression of dominant-negative IκB-kinase β (dnIkkβ). (A Upper) dnIkkβ-Expressing transfectant cells by light microscopy (i), 4′,6-diamidino-2-phenylindole (DAPI)-stained nuclei (ii), and immunofluorescence with anti-FLAG antibody in the presence of the secondary antibody (iii). The positive signals show dnIkkβ-conjugated FLAG protein in the cytoplasm. (Lower) Processed vector-control plasmid-transfected CSMLO cells in which no FLAG protein could be detected (vi). (B Upper) Active NF-κB was determined by its [γ-^32P]DNA binding activity by EMSA, in three dnIkkβ-expressing stable transfectants (dnIkkβ1-1, dnIkkβ1-3, and dnIkkβ1-5) and (Lower) in parent CSMLO cells and vector control plasmid expressing transfectant (vect1-5). (C Upper) The level of ccD1 in the same three-dnIkkβ-expressing CSMLO and vector control transfected cells, as measured by Western blot analysis. (Lower) Actin analyzed similarly by immunodetection with anti-β-actin antibody that serves as a loading control.

[6] = Physical condition and lethality of treated mice; type: in vivo
Procedure: as §1, §2

Structure (SMILES): Cn1c2ccccc2c2c3c(c4c5ccccc5n(CCC#N)c4c21)CNC3=O [Go6976]
- tumor growth (tumor volume) ([1]; Go6976 0.5 ml of 0.05 mM in 0.1% DMSO, local, twice a week, started within 48 h of implantation of CSMLO cells, vs DMSO-treated group): substantial inhibition of tumor growth
- regression of full-grown tumors (tumor volume) ([1]; Go6976 administered locally 21 days after implantation of CSMLO cells, all of five animals): regressed sharply
- basal level of NF-κB [2]: did not affect the basal level of NF-κB
- PMA-induced elevation of NF-κB activation ([2]; PMA 20 ng/ml, simultaneous treatment with Go6976 for 48 h): inhibited in a concentration-dependent manner
- growth of cells under culture conditions [3]: not affected
- histological changes in tumor tissue ([4]; Go6976-treated tumor-bearing animals, 11 days after initiation of treatment): extensive necrosis
- pycnotic cells in residual tumor tissue (suggestive of DNA fragmentation and apoptosis) ([4]; treated animal, magnification 100×): a large number of pycnotic cells with nuclear clumping
- pathological changes in liver and lung tissue ([4]; tumor-bearing or non-tumor-bearing animals, localized Go6976 treatment): did not show any microscopically detectable pathological changes
- transactivation of ccD1 [5]: blocked transactivation of ccD1
- physical defects as judged by body weight and agility ([6]; mice without tumor treated with Go6976): did not show any apparent physical defects
- mouse lethality ([6]; mouse, in vivo): without mouse lethality
